Molecular target: T1, FpMOBP (Faecalibacterium prausnitzii, UniProt D4KAW3)
T1 construct: gene FPR_17280; mature form without predicted signal peptide, C-terminal His6 tag (pNIC-CH), E. coli BL21 STAR; 48 kDa
T1 sequence (D4KAW3 26-470): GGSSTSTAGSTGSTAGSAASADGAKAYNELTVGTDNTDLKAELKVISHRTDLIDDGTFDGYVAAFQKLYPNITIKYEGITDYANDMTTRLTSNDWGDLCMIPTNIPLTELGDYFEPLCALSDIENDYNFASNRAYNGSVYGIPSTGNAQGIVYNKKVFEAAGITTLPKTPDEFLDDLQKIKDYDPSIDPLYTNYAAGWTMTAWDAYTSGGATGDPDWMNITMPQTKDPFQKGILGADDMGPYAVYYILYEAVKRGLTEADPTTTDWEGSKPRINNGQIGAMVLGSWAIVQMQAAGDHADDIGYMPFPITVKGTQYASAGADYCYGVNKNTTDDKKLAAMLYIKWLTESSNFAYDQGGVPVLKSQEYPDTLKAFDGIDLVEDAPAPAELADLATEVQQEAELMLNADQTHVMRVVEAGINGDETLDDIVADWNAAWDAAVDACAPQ
Assay: isothermal titration calorimetry
Format: binding
Details: 25°C, 50 mM sodium phosphate pH 6.5; n = 0.8

## OC[C@H]1O[C@@H](O[C@H]2[C@H](O)[C@H](O)[C@H](O[C@H]3[C@H](O)[C@H](O)[C@H](O[C@H]4[C@H](O)[C@H](O)[C@H](O[C@H]5[C@H](O)[C@H](O)[C@H](O[C@H]6[C@H](O)[C@H](O)C(O)O[C@@H]6CO)O[C@@H]5CO)O[C@@H]4CO)O[C@@H]3CO)O[C@@H]2CO)[C@@H](O)[C@@H](O)[C@@H]1O (stereo partly shown) [M6, mannohexaose]
  Kd: 189 ± 1.4 µM

From article PMC8262883, “Human Gut Faecalibacterium prausnitzii Deploys a Highly Efficient Conserved System To Cross-Feed on β-Mannan-Derived Oligosaccharides” (mBio, 2021)
